# Experimental data: patent US6683107B2, “Furans, benzofurans, and thiophenes useful in the treatment of insulin resistance and hyperglycemia” (Wyeth, priority 1998, dated 2004)
# Legend:
# [1] = target: T1, human recombinant PTP1B (hPTP1B) (Homo sapiens, UniProt P18031); assay: Inhibition of tri-phosphorylated insulin receptor dodecaphosphopeptide dephosphorylation by hPTP1B (malachite green phosphate detection); assay type: biochemical; conditions: for IC50: recombinant PTP1B, insulin receptor 1142-1153 triphosphopeptide substrate, 37° C., 30 min, pH 7.4; for inhibition at 1 µM: compound at 1.0 μM, percent of phosphatase control
# T1 construct: made in house
# T1 sequence (P18031 1-435): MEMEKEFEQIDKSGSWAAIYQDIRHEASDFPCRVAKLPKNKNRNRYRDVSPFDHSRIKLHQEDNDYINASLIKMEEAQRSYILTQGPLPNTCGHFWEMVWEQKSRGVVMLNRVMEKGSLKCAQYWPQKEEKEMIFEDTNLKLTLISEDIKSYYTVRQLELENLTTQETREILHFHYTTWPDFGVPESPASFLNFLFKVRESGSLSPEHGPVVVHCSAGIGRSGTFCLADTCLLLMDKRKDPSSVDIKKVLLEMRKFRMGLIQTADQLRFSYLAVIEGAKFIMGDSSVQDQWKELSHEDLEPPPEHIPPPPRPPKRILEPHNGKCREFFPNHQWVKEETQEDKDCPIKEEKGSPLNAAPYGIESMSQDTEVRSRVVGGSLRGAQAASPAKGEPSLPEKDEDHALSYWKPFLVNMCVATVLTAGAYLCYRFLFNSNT
Compound,IC50 [1] [nM],melting point [°C],inhibition at 1 µM [1] [%]
"Cc1oc(Cc2ccccc2Br)c(C(=O)c2ccc(OS(=O)(=O)c3ccc(C(=O)O)c(O)c3)c(C3CCCC3)c2)c1C [Example 21, 4-{4-[2-(2-Bromo-benzyl)4,5-dimethyl-furan-3-carbonyl]-2-cyclopentyl-phenoxysulfonyl}-2-hydroxy-benzoic acid]",371,72 to 82,
"CC(=O)Oc1cc(S(=O)(=O)Oc2ccc(C(=O)c3c(Cc4ccccc4)oc(C)c3C)cc2C2CCCC2)ccc1C(=O)O [Example 22, 2-Acetoxy4-[4-(2-benzyl-4,5-dimethyl-furan-3-carbonyl)-2-cyclopentyl-phenoxysulfonyl]-benzoic acid]",508,55 to 90,
"CC(=O)Oc1cc(S(=O)(=O)Oc2ccc(C(=O)c3c(Cc4ccccc4)sc(C)c3C)cc2C2CCCC2)ccc1C(=O)O [Example 23, 2-Acetoxy4-[4-(2-benzyl-4,5-dimethyl-thiophene-3-carbonyl)-2-cyclopentyl-phenoxysulfonyl]-benzoic acid]",439,94 to 96,
"CC(=O)Oc1cc(S(=O)(=O)Oc2ccc(C(=O)c3c(Cc4ccc(Br)cc4)sc(C)c3C)cc2C2CCCC2)ccc1C(=O)O [Example 24, 2-Acetoxy-4-{4-[2-(4-Bromo-benzyl)-4,5-dimethyl-thiophene-3-carbonyl]-2-cyclopentyl-phenoxysulfonyl}-benzoic acid]",254,113 to 114,
"CC(=O)Oc1cc(S(=O)(=O)Oc2ccc(C(=O)c3c(Cc4ccccc4Br)oc(C)c3C)cc2C2CCCC2)ccc1C(=O)O [Example 25, 2-Acetoxy-4-{4-[2-(2-Bromo-benzyl)-4,5-dimethyl-fuiran-3-carbonyl]-2-cyclopentyl-phenoxysulfonyl}-benzoic acid]",241,79,
"CCCCc1oc2ccccc2c1CCc1ccc(OS(=O)(=O)c2ccc(C(=O)O)c(OC(C)=O)c2)cc1 [Example 26, 2-Acetoxy-4-{4-[2-(2-butyl-benzofuran-3-yl)-ethyl]-phenoxysulfonyl}-benzoic acid]",,54 to 57,51.4
"Cc1sc(Cc2ccc(Br)cc2)c(C(=O)c2ccc(OS(=O)(=O)c3cnn(C)c3)c(C3CCCC3)c2)c1C [Example 27, 1-Methyl-1H-pyrazole-4-sulfonic acid 4-[2-(4-bromo-benzyl)-4,5-dimethyl-thiophene-3-carbonyl]-2-cyclopentyl-phenyl ester]",,55 to 60,22.7
"CCCCc1oc2ccccc2c1Cc1ccc(OS(=O)(=O)c2ccc(C(=O)O)c(O)c2)cc1 [Example 28, 4-[4-(2-Butyl-benzofuran-3-ylmethyl)-phenoxysulfonyl]-2-hydroxy-benzoic acid]",577,135 to 138,
